Tests used:
Type in all cases: in vivo
[1] = system: Nilaparvata lugens (brown planthoppers); assay: Activity against Nilaparvata lugens (brown planthoppers); settings: compound by itself
[2] = system: Nephotettix cincticeps (green leaf hopper); assay: Activity against Nephotettix cincticeps (green leaf hopper), % mortality; settings: for activity against Nephotettix cincticeps (green leaf hoppers), in words: compound by itself
From the text: In experiments on activity against Nephotettix spp. (rice leaf hoppers), for example, Nephotettix cincticeps (green leaf hopper), carried out on representative compounds of the first preferred embodiment, the following results (wherein ppm indicates the concentration of the compound in parts per million of the test solution applied) have been obtained, as shown in Table 7: […]

[3] = system: Cnaphalocrocis medinalis (rice leaf rollers); assay: Activity against Cnaphalocrocis medinalis (rice leaf rollers); settings: compound by itself

COC(=O)N(C(=O)N1COC2(C(=O)OC)Cc3cc(Cl)ccc3C2=N1)c1ccc(OC(F)(F)F)cc1 (stereo not drawn) [Indoxacarb, indoxacarb] was tested. Which “activity against Nilaparvata lugens (brown planthoppers), in words” value (from here on “activity against Nilaparvata lugens”) [1] did it give?
The value was “not particularly active”.

And the “activity against Nilaparvata lugens” value ([1]; listed as indoxacarb)?
The value was “not particularly effective”.

And the mortality at 6.25 ppm ([2]; Nephotettix cincticeps, Indoxacarb 6.25 ppm alone (Ethiprole 0 ppm))?
The mortality at 6.25 ppm was 0%.

And the mortality at 12.5 ppm ([2]; Nephotettix cincticeps, Indoxacarb 12.5 ppm alone (Ethiprole 0 ppm))?
The mortality at 12.5 ppm was 16.2%.

And the mortality at 25 ppm ([2]; Nephotettix cincticeps, Indoxacarb 25 ppm alone (Ethiprole 0 ppm))?
The mortality at 25 ppm was 38%.

What about the “activity against Nephotettix cincticeps (green leaf hoppers), in words” value (from here on “activity against Nephotettix cincticeps”) [2] of the same compound?
Its value is “some activity by itself”.

What about the “activity against Nephotettix cincticeps” value ([2]; listed as indoxacarb) of the same compound?
Its value is “active”.

And the “activity against Cnaphalocrocis medinalis (rice leaf rollers), in words” value (from here on “activity … (rice leaf rollers), in words”) [3]?
The value was “very active”.

And the “activity … (rice leaf rollers), in words” value ([3]; listed as indoxacarb)?
Its value is “active”.

With CC[S+]([O-])c1c(C#N)nn(-c2c(Cl)cc(C(F)(F)F)cc2Cl)c1N (stereo not drawn) [Ethiprole, ethiprole] as the compound, how does the “activity against Nilaparvata lugens” value [1] read?
Its value is “shows activity”.

And the “activity against Nephotettix cincticeps” value [2]?
Its value is “some activity by itself”.

What about the “activity … (rice leaf rollers), in words” value [3] of the same compound?
Its value is “not particularly active”.
